Columns and labels:
Aorta = assay: Vasorelaxant activity in rat aortic ring assessed as inhibition of phenylephrine-induced contraction; assay type: functional, tissue-based
[1] = target: Serine/threonine-protein kinase N2 (Homo sapiens, UniProt Q16513); assay: Inhibition of PRKCL2
[2] = target: T1, cGMP-dependent protein kinase 2 (Homo sapiens, UniProt Q13237); assay: Inhibition of PRKG2
T1 sequence (Q13237 whole entry): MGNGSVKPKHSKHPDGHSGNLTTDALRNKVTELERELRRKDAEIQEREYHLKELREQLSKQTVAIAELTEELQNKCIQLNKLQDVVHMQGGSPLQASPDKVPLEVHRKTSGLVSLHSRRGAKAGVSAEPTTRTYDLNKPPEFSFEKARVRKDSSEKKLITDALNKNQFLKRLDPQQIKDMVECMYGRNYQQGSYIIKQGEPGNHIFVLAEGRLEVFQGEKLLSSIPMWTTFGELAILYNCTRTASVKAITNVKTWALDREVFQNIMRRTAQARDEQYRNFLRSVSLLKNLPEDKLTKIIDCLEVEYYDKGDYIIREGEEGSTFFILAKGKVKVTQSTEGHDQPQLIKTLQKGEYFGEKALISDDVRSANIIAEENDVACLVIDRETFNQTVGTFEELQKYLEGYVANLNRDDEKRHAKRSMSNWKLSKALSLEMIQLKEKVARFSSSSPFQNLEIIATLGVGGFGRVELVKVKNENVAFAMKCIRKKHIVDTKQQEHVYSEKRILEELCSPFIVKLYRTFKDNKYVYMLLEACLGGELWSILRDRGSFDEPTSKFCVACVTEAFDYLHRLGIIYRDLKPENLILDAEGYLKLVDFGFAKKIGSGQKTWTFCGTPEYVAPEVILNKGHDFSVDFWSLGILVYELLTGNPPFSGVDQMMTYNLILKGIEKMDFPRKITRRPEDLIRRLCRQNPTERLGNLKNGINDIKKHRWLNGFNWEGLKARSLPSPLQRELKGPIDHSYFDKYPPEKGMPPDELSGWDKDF

[3] = target: T2, Protein kinase C epsilon type (Homo sapiens, UniProt Q02156); assay: Inhibition of PRKCE
T2 sequence (Q02156 whole entry): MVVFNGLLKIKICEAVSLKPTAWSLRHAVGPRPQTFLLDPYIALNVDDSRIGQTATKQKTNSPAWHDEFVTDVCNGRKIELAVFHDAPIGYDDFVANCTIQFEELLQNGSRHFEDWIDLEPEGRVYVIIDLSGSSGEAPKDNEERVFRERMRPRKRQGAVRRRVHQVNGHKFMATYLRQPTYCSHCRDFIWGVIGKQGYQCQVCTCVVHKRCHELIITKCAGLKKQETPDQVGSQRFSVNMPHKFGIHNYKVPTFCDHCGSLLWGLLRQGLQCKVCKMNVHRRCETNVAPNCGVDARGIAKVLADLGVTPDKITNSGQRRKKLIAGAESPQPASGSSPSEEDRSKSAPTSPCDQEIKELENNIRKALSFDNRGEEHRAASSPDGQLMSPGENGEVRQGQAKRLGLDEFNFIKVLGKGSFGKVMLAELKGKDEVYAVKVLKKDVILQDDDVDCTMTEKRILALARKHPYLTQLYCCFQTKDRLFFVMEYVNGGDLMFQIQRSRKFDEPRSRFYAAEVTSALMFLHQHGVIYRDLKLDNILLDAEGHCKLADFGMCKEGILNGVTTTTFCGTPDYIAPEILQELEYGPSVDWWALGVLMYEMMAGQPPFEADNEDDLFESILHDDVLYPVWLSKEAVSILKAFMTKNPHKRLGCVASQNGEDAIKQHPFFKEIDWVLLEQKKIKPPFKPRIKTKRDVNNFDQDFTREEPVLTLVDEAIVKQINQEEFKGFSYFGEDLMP

[4] = target: Rho-associated protein kinase 2 (Homo sapiens, UniProt O75116); assay: Inhibition of ROCK2 by luciferase based ATP detection assay
Rho-associated protein kinase 2, sequence (O75116 whole entry): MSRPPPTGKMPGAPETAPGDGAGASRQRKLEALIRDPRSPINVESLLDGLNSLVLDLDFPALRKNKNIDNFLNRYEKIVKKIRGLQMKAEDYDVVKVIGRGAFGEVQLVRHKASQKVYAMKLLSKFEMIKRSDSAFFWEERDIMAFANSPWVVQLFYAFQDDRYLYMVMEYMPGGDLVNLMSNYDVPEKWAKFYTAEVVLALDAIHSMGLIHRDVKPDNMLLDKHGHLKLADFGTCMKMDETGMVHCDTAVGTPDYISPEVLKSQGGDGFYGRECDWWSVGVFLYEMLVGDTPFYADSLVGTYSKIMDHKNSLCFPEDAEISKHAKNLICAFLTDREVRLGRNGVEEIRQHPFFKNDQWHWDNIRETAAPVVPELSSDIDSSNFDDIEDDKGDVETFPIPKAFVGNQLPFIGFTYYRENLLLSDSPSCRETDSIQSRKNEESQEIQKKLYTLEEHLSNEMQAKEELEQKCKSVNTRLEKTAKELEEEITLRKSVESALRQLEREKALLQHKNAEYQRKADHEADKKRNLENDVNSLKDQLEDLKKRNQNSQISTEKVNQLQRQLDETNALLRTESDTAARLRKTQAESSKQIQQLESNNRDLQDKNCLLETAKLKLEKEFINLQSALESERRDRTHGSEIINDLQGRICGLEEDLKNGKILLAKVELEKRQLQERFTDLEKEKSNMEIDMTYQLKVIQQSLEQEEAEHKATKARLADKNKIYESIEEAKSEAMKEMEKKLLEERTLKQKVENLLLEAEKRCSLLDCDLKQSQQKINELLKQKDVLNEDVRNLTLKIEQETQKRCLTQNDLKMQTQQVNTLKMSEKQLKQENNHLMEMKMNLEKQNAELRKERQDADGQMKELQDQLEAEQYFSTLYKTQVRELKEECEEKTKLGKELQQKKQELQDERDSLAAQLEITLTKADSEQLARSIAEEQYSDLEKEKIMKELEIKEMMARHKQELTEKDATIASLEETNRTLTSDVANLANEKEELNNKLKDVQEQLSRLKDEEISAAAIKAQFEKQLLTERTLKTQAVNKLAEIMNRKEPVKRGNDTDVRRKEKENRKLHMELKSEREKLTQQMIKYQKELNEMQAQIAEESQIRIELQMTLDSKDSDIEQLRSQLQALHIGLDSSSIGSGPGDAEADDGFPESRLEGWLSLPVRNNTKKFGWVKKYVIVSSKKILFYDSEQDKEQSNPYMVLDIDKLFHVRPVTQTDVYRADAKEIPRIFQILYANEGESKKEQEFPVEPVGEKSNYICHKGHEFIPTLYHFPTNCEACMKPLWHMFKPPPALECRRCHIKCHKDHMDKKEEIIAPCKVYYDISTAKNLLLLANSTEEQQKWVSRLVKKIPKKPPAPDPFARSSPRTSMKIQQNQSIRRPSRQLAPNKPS

in vitro = settings: human

Serine/threonine-protein kinase N2, sequence (Q16513 whole entry): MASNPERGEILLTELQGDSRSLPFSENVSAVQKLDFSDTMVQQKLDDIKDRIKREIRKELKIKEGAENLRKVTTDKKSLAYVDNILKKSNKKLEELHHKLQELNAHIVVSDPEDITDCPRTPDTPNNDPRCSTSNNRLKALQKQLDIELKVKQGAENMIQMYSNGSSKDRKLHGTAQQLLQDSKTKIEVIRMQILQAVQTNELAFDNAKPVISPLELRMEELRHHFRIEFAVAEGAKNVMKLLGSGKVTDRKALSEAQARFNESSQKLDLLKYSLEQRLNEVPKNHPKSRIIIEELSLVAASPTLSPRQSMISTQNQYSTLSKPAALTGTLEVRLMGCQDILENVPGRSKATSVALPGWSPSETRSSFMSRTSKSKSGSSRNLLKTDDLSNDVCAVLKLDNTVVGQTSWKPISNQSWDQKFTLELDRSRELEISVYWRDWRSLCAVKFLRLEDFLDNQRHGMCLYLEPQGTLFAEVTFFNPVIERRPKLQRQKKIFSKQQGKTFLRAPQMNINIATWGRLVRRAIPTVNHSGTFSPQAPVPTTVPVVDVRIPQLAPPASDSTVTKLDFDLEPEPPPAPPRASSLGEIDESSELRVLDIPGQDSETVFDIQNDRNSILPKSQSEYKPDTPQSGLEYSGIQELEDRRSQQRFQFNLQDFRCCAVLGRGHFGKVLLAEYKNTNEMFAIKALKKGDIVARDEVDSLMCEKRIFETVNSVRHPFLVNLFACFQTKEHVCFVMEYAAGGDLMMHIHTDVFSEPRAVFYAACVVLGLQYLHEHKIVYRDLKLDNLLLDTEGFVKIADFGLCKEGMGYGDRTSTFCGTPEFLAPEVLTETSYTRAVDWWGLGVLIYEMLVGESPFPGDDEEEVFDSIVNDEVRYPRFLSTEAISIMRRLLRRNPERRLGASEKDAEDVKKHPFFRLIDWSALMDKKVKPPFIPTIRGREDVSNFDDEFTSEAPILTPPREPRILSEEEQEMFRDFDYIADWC

For `O=C(Nc1cc2cc[nH]c(=O)c2cc1Cl)[C@H]1CNC[C@@H]1c1ccc(Cl)cc1`, which EC50 (Aorta) is on record?
Its EC50 is 40 nM.

With `O=C(Nc1cc2cc[nH]c(=O)c2cc1Cl)[C@@H]1CNC[C@H]1c1ccc(Cl)cc1` as the compound, how does the IC50 [1] read?
The IC50 was 14 nM.

And the IC50 [2]?
The IC50 was 24 nM.

What about the IC50 [3] of the same compound?
The IC50 was 1000 nM.

And the IC50 [4]?
The IC50 was 4 nM.

And the EC50 (Aorta)?
The EC50 was 23 nM.

For `NC(C(=O)Nc1cc2cc[nH]c(=O)c2cc1Cl)c1cccc(Cl)c1` (centres undefined), which IC50 [4] is on record?
Its IC50 is 15 nM.

For `O=C(Nc1cc2cc[nH]c(=O)c2cc1Cl)C1(c2ccccc2)CCNC1` (centres undefined), which IC50 [4] is on record?
Its IC50 is 240 nM.

For `CNC(C(=O)Nc1cc2cc[nH]c(=O)c2cc1Cl)c1ccccc1` (centres undefined), which half-life (in vitro; microsomes) is on record?
Its half-life is 15 min.

What about the EC50 (Aorta) of the same compound?
Its EC50 is 170 nM.

Which half-life (in vitro; liver microsomes) does the source give for `O=C(Nc1cc2cc[nH]c(=O)c2cc1Cl)[C@@H]1CCCNC1` here?
Its half-life is 71 min.

What about the IC50 [4] of the same compound?
Its IC50 is 47 nM.

What about the EC50 (Aorta) of the same compound?
Its EC50 is 550 nM.

Which IC50 [4] does the source give for `O=C(Nc1cc2cc[nH]c(=O)c2cc1Cl)C1(c2ccccc2)CCNCC1` here?
Its IC50 is 230 nM.

With `O=C(Nc1cc2cc[nH]c(=O)c2cc1Cl)C1CNCC1c1ccc(Cl)cc1` (racemic) as the compound, how does the half-life (in vitro; liver microsomes) read?
The half-life was over 300 min.

And the IC50 [4]?
Its IC50 is 6 nM.

What about the EC50 (Aorta) of the same compound?
The EC50 was 60 nM.

For `O=C(Nc1cc2cc[nH]c(=O)c2cc1Cl)C1CNCC1c1cccc(C(F)(F)F)c1` (racemic), which IC50 [4] is on record?
The IC50 was 4 nM.

What does the source list for `O=C(Nc1cc2cc[nH]c(=O)c2cc1Cl)C1CNCC1c1cccc(Br)c1` (racemic)?
half-life (in vitro; liver microsomes): 43 min; IC50 [4]: 2 nM; EC50 (Aorta): 63 nM

What does the source list for `COc1cccc(C2CNCC2C(=O)Nc2cc3cc[nH]c(=O)c3cc2Cl)c1` (racemic)?
IC50 [4]: 4 nM; EC50 (Aorta): 88 nM

For `Cc1cccc(C2CNCC2C(=O)Nc2cc3cc[nH]c(=O)c3cc2Cl)c1` (racemic), which IC50 [4] is on record?
The IC50 was 5 nM.

With `O=C(Nc1cc2cc[nH]c(=O)c2cc1Cl)C1CNCC1c1ccc(Cl)cc1Cl` (racemic) as the compound, how does the IC50 [4] read?
Its IC50 is 8 nM.

With `O=C(Nc1cc2cc[nH]c(=O)c2cc1Cl)C1CNCC1c1ccccn1` (racemic) as the compound, how does the half-life (in vitro; liver microsomes) read?
Its half-life is 58 min.

And the IC50 [4]?
Its IC50 is 14 nM.

What about the EC50 (Aorta) of the same compound?
Its EC50 is 210 nM.

With `CCc1cccc(C2CNCC2C(=O)Nc2cc3cc[nH]c(=O)c3cc2Cl)c1` (racemic) as the compound, how does the IC50 [4] read?
The IC50 was 4 nM.

With `O=C(Nc1cc2cc[nH]c(=O)c2cc1Cl)C1CNCC1c1cccnc1` (racemic) as the compound, how does the half-life (in vitro; microsomes) read?
Its half-life is 49 min.

And the IC50 [4]?
The IC50 was 8 nM.

And the EC50 (Aorta)?
The EC50 was 150 nM.

With `O=C(Nc1cc2cc[nH]c(=O)c2cc1Cl)C1CNCC1c1ccncc1` (racemic) as the compound, how does the IC50 [4] read?
Its IC50 is 26 nM.

What about the EC50 (Aorta) of the same compound?
The EC50 was 66 nM.

Which results are given for `O=C(Nc1cc2cc[nH]c(=O)c2cc1Cl)C1CNCC1c1ccc(F)cc1` (racemic)?
half-life (in vitro; liver microsomes): 61 min; IC50 [4]: 9 nM; EC50 (Aorta): 160 nM

For `O=C(Nc1cc2cc[nH]c(=O)c2cc1Cl)C1CNCCC1c1ccccc1` (racemic), which half-life (in vitro; liver microsomes) is on record?
Its half-life is 37 min.

And the IC50 [4]?
The IC50 was 6 nM.

What about the EC50 (Aorta) of the same compound?
Its EC50 is 55 nM.

For `CC(C)(C)c1cccc(C2CNCC2C(=O)Nc2cc3cc[nH]c(=O)c3cc2Cl)c1` (racemic), which IC50 [4] is on record?
The IC50 was 11 nM.

With `O=C(Nc1cc2cc[nH]c(=O)c2cc1Cl)C1CNCC1c1ccccc1` (racemic) as the compound, how does the half-life (in vitro; liver microsomes) read?
The half-life was 130 min.

What about the IC50 [4] of the same compound?
The IC50 was 6 nM.

What about the EC50 (Aorta) of the same compound?
Its EC50 is 89 nM.

For `O=C(Nc1cc2cc[nH]c(=O)c2cc1Cl)C1CNCC1c1ccc(Br)cc1` (racemic), which half-life (in vitro; microsomes) is on record?
Its half-life is 238 min.

What about the IC50 [4] of the same compound?
The IC50 was 4 nM.

What about the EC50 (Aorta) of the same compound?
Its EC50 is 140 nM.

For `O=C(Nc1cc2cc[nH]c(=O)c2cc1Cl)C1CNCC1c1cccc(OC(F)(F)F)c1` (racemic), which IC50 [4] is on record?
Its IC50 is 7 nM.

For `CC(C)c1cccc(C2CNCC2C(=O)Nc2cc3cc[nH]c(=O)c3cc2Cl)c1` (racemic), which IC50 [4] is on record?
Its IC50 is 6 nM.

From ChEMBL document CHEMBL1155533, “Substituted 2H-isoquinolin-1-ones as potent Rho-kinase inhibitors: part 3, aryl substituted pyrrolidines” (Bioorg Med Chem Lett, 2010)
